Data: PMC10743929, “Amphiphilic Sialic Acid Derivatives as Potential Dual-Specific Inhibitors of Influenza Hemagglutinin and Neuraminidase” (International Journal of Molecular Sciences, 2023)
“Also recorded” adds a separate entry of the source. Where two headings read alike, the source gives them in different places. Marks after values point to notes of the source that are not given here.

What was measured:
hemagglutinin = conditions: cited from earlier work
viral neuraminidase = conditions: cited from earlier work
IAV (A/H1N1) = experiment: CPE reduction assay, influenza A/H1N1 in MDCK cells; type: cell-based, influenza A virus A/H1N1 (A/Virginia/ATCC3/2009 or A/PR/8); conditions: Influenza A virus, H1N1, 72 h
Experimental: (§1) The process of CPE reduction assay for the influenza virus was described previously. The virus strains were A/Virginia/ATCC3/2009, A/PR/8 (A/H1N1), A/Victoria/361/11, A/HK/7/87 (A/H3N2), and B/Ned/537/05 (IBV). On day 0, Madin-Darby canine kidney (MDCK) cells in 96-well plates were infected with influenza virus at a multiplicity of infection (MOI) of 0.0004 plaque forming units (PFU) per cell, and that was incubated at 35 °C for 3 days. After the third day, virus-induced CPE and compound cytotoxicity were scored by microscopy, and the data were confirmed by formazan-based MTS cell viability assay (CellTiter 96® AQueous One Solution Cell Proliferation Assay from Promega, Madison, WI, USA). […] Compound cytotoxicity was expressed as the concentration of the compound causing minimal changes in cell morphology (MCC) and 50% cytotoxic concentration (CC50) based on the MTS assay.

IAV (A/H3N2) = experiment: CPE reduction assay, influenza A/H3N2 in MDCK cells; type: cell-based, influenza A virus A/H3N2 (A/Victoria/361/11 or A/HK/7/87); conditions: Influenza A virus, H3N2, 72 h
Experimental: as §1

IBV = experiment: CPE reduction assay, influenza B in MDCK cells; type: cell-based, influenza B virus (B/Ned/537/05); conditions: Influenza B virus, 72 h
Experimental: as §1

[1] = tested on: Madin-Darby canine kidney (MDCK) cells; conditions: dog, 3 days
in vitro = conditions: dog
[2] = Dynamic light scattering of aggregates; conditions: RSD of 3 measurements in brackets
H1N1 Hemagglutinin = H1N1 Hemagglutinin (Influenza A virus, UniProt P03452); experiment: SPR affinity toward immobilized H1N1 hemagglutinin; type: binding, influenza type H1N1 (A/Puerto Rico/8/34); conditions: for Kd: KD(app)
Chain of H1N1 Hemagglutinin (P03452 18-565): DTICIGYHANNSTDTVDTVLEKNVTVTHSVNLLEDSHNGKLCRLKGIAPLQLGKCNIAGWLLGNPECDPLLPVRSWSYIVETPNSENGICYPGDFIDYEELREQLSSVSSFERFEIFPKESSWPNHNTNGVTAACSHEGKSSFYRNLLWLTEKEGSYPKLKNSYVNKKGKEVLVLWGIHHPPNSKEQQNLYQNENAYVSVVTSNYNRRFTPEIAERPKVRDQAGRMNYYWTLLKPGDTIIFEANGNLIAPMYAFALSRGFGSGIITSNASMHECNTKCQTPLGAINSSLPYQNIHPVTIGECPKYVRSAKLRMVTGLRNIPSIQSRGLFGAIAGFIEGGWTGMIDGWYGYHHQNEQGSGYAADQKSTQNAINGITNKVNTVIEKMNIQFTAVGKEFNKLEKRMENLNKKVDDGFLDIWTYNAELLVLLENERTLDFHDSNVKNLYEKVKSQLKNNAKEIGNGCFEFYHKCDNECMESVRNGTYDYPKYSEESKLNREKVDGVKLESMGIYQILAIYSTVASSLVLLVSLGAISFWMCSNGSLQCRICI
Experimental: (§2) SPR experiments were conducted using a BIAcore S200 instrument (Cytiva, Marlborough, MA, USA) employing a CM5 chip with a carboxymethyldextran surface (Cytiva, USA). Hemagglutinins (ThermoFisher Scientific, Invitrogen, Waltham, MA, USA) from influenza type H3N2 (A/Aichi/2/1968) and H1N1 (A/Puerto Rico/8/34), as well as neuraminidase (Invitrogen, USA) from H1N1 (A/California/04/2009), were immobilized on the chip surface following the standard amine coupling procedure outlined in the manufacturer’s instructions. This immobilization process was performed at a flow rate of 10 μL/min using PBST as the running buffer. The chip surface was initially activated using an N-ethyl-N-(3-dimethylaminopropyl)carbodiimide/N-hydroxysuccinimide solution. Subsequently, 50 μg/mL solutions of individual proteins in 10 mM sodium acetate, pH 5, were injected into channels 2, 3, and 4, respectively. To block any unreacted groups, all channels were treated with 1 M ethanolamine, resulting in a final response of 4500 RU for HAs and 2700 RU for neuraminidase. Channel 1 was activated and blocked in the same manner, without the injection of any protein, serving as a blank.
(§3) Tested compounds in a PBST working buffer (20 mM Na-phosphate, 150 mM NaCl, pH 7.4, 0.005% Tween 20, 5% DMSO) were injected into the chip at a flow rate of 30 μL/min at 25 °C. The injection duration was 3 min, followed by a 10 min buffer flow to facilitate spontaneous dissociation. Each compound was injected as a two-fold dilution series within a concentration range of 0.78–800 μM (2.44–2500 μM for sialic acid). After each compound concentration series, five buffer injections were performed to ensure complete dissociation. To determine the apparent KD toward the immobilized proteins, the steady-state responses of the blank-subtracted curves from each replicate were fitted using a single-site binding model.
(§4) In experiments conducted in a DMSO-free buffer (20 mM Na-phosphate, 150 mM NaCl, pH 7.4, 0.005% Tween 20), each replicate was followed by a two-fold dilution series of DMSO, matching the DMSO concentration in the compound solutions. In this case, the steady-state response of the blank-subtracted curve was corrected by the corresponding blank-subtracted DMSO steady-state response. The final values from each replicate were fitted using a single-site binding model using Origin 7 (OriginLab Corporation, Northampton, MA, USA).
(§5) For all experiments, the final KD(app) and Rmax values, along with their standard deviations, were obtained through statistical analysis based on three replicates.

H3N2 Hemagglutinin = H3N2 Hemagglutinin (Influenza A virus, UniProt P03437); experiment: SPR affinity toward immobilized H3N2 hemagglutinin; type: binding, influenza type H3N2 (A/Aichi/2/1968); conditions: for Kd: KD(app)
Experimental: as §2, §3, §4, §5

H1N1 Neuraminidase = H1N1 Neuraminidase (Influenza A virus, UniProt C3W5S3); experiment: SPR affinity toward immobilized H1N1 neuraminidase; type: binding, influenza H1N1 (A/California/04/2009); conditions: PBST with 5% DMSO, 25 °C
Experimental: as §2, §3, §5

influenza A strains = experiment: Anti-influenza activity against influenza A strains (H1N1 and H3N2) in MDCK cells; type: cell-based, influenza A virus (H1N1 and H3N2 types); conditions: for activity against influenza A strains (in words): MDCK cells, H1N1 and H3N2; for ratio of CC50 to EC50 (selectivity): both determined by MTS assay, at best
Experimental: as §1

[3] = MTS cell viability assay, day 3, read-out: Antiviral EC50, IAV (A/H1N1), MTS
[4] = microscopic scoring of cytopathic effect, day 3, read-out: Antiviral EC50, IAV (A/H1N1), CPE
[5] = MTS cell viability assay, day 3, read-out: Antiviral EC50, IAV (A/H3N2), MTS
[6] = microscopic scoring of cytopathic effect, day 3, read-out: Antiviral EC50, IAV (A/H3N2), CPE
[7] = MTS cell viability assay, day 3, read-out: Antiviral EC50, IBV, MTS
[8] = microscopic scoring of cytopathic effect, day 3, read-out: Antiviral EC50, IBV, CPE
[9] = 0.1 mg/mL (diluted with water), 25 °C
[10] = 1 mg/mL in water/DMSO 9:1, 25 °C
[11] = H1N1 Hemagglutinin, PBST with 5% DMSO, 25 °C, steady-state single-site fit
[12] = H1N1 hemagglutinin, absence of DMSO, DMSO-free running buffer
[13] = H3N2 Hemagglutinin, PBST with 5% DMSO, 25 °C, steady-state single-site fit
[14] = H3N2 hemagglutinin, absence of DMSO, DMSO-free running buffer

Compound	EC50 (IAV (A/H1N1); [3]) [µM]	EC50 (IAV (A/H1N1); [4]) [µM]	EC50 (IAV (A/H3N2); [5]) [µM]	EC50 (IAV (A/H3N2); [6]) [µM]	EC50 (IBV; [7]) [µM]	EC50 (IBV; [8]) [µM]	Cytotoxicity MCC (minimum cytotoxic concentration) [1]	CC50 (in vitro) [µM]	activity against influenza A strains (in words) (influenza A strains)	further results
CC(=O)NC1C(OC(=O)CNS(=O)(=O)c2cccc3c(N(C)C)cccc23)CC(OCCCCCCC(=O)NCc2cccc3ccccc23)(C(=O)O)OC1C(O)C(O)CO (centres unmarked) [Compound 2]										affinity for hemagglutinin (in words) (hemagglutinin): high affinity; substrate for viral neuraminidase (in words) (viral neuraminidase): not a substrate
CCCCCCCCCCOC1C(OC)OC(COCCOCCOCCOCCn2cc(CSC3(C(=O)O)CC(O)C(NC(C)=O)C(C(O)C(O)CO)O3)nn2)C(OCc2ccc(OC)cc2)C1OCCCCCCCCCC (centres unmarked) [Compound 12a]	> 100	> 100	> 100	> 100	> 100	> 100	20 ^d µM	64		d (average diameter of particles, DLS) [2, 9]: 170 (15.8%) ^a nm; d (average diameter of particles, DLS) [2, 10]: 126 (2.00%) ^a nm
CCCCCCCCOC1C(OC)OC(COCCOCCOCCOCCn2cc(CSC3(C(=O)O)CC(O)C(NC(C)=O)C(C(O)C(O)CO)O3)nn2)C(OCc2ccc(OC)cc2)C1OCCCCCCCC (centres unmarked) [Compound 12b]	15 ± 5	8.9	8.7 ± 3.6	8.9	> 100	> 100	39 ± 20 µM	34 ± 13	effective; also recorded: moderate effect	Rmax, H1N1 hemagglutinin, absence of DMSO (H1N1 Hemagglutinin; DMSO-free running buffer): 305 ± 30 RU; Kd (H1N1 Hemagglutinin; [11]): 161 ± 20 µM; Kd (H1N1 Hemagglutinin; [12]): 187 ± 41 µM; Rmax, H1N1 Hemagglutinin (H1N1 Hemagglutinin; PBST with 5% DMSO, 25 °C): 130 ± 12 RU; Rmax, H3N2 hemagglutinin, absence of DMSO (H3N2 Hemagglutinin; DMSO-free running buffer): 454 ± 39 RU; Kd (H3N2 Hemagglutinin; [13]): 124 ± 21 µM; Kd (H3N2 Hemagglutinin; [14]): 279 ± 98 µM; Rmax, H3N2 Hemagglutinin (H3N2 Hemagglutinin; PBST with 5% DMSO, 25 °C): 135 ± 11 RU; Rmax, H1N1 Neuraminidase (H1N1 Neuraminidase): 175 ± 23 RU; ratio of CC50 to EC50 (selectivity) (influenza A strains): ≤ 4 factor; d (average diameter of particles, DLS) [2, 9]: 108 (13.4%) ^a nm; d (average diameter of particles, DLS) [2, 10]: 96 (1.19%) ^a nm
CCCCOC1C(OC)OC(COCCOCCOCCOCCn2cc(CSC3(C(=O)O)CC(O)C(NC(C)=O)C(C(O)C(O)CO)O3)nn2)C(OCc2ccc(OC)cc2)C1OCCCC (centres unmarked) [Compound 12c]	> 100	> 100	> 100	> 100	> 100	> 100	100 ± 0 µM	> 100		d (average diameter of particles, DLS) [2, 9]: 111 (14.2%) ^a nm; d (average diameter of particles, DLS) [2, 10]: 103 (28.3%) ^a nm
CCCCCCCCCCOCC1OC(CCCSC2(C(=O)O)CC(O)C(NC(C)=O)C(C(O)C(O)CO)O2)C=CC1OCCCCCCCCCC (centres unmarked) [Compound 18a]	> 100	> 100	> 100	> 100	> 100	> 100	20 ^d µM	10		
CCCCCCCCOCC1OC(CCCSC2(C(=O)O)CC(O)C(NC(C)=O)C(C(O)C(O)CO)O2)C=CC1OCCCCCCCC (centres unmarked) [Compound 18b]	23	25	6.2 ± 3	4.8 ± 1	> 100	> 100	63 ± 19 µM	32 ± 8	effective; also recorded: moderate effect	Rmax, H1N1 hemagglutinin, absence of DMSO (H1N1 Hemagglutinin; DMSO-free running buffer): 783 ± 8 RU; Kd (H1N1 Hemagglutinin; [12]): 286 ± 19 µM; Rmax, H3N2 hemagglutinin, absence of DMSO (H3N2 Hemagglutinin; DMSO-free running buffer): 925 ± 23 RU; Kd (H3N2 Hemagglutinin; [14]): 357 ± 23 µM; Rmax, H1N1 Neuraminidase (H1N1 Neuraminidase): 166 ± 53 RU; ratio of CC50 to EC50 (selectivity) (influenza A strains): ≤ 5 factor
CCCCCCOCC1OC(CCCSC2(C(=O)O)CC(O)C(NC(C)=O)C(C(O)C(O)CO)O2)C=CC1OCCCCCC (centres unmarked) [Compound 18c]	> 100	> 100	> 100	> 100	> 100	> 100	100 ^d µM	> 100		
CCCCCCCCOCC1OC(OCCOCCOCCOCCOCCCSC2(C(=O)O)CC(O)C(NC(C)=O)C(C(O)C(O)CO)O2)C=CC1OCCCCCCCC (centres unmarked) [Compound 23a]	> 100	> 100	> 100	> 100	> 100	> 100	40 ^d µM	54	no anti-influenza effect	Rmax, H1N1 hemagglutinin, absence of DMSO (H1N1 Hemagglutinin; DMSO-free running buffer): 197 ± 24 RU; Kd (H1N1 Hemagglutinin; [11]): 6220 ± 4040 µM; Kd (H1N1 Hemagglutinin; [12]): 106 ± 36 µM; Rmax, H1N1 Hemagglutinin (H1N1 Hemagglutinin; PBST with 5% DMSO, 25 °C): 505 ± 275 RU; Rmax, H3N2 hemagglutinin, absence of DMSO (H3N2 Hemagglutinin; DMSO-free running buffer): 200 ± 23 RU; Kd (H3N2 Hemagglutinin; [13]): 1220 ± 737 µM; Kd (H3N2 Hemagglutinin; [14]): 134 ± 48 µM; Rmax, H3N2 Hemagglutinin (H3N2 Hemagglutinin; PBST with 5% DMSO, 25 °C): 148 ± 43 RU; Rmax, H1N1 Neuraminidase (H1N1 Neuraminidase): 74 ± 13 RU
CCCCCCOCC1OC(OCCOCCOCCOCCOCCCSC2(C(=O)O)CC(O)C(NC(C)=O)C(C(O)C(O)CO)O2)C=CC1OCCCCCC (centres unmarked) [Compound 23b]	> 100	> 100	> 100	> 100	> 100	> 100	>100 µM	> 100	ineffective	
CO[C@]1(C(=O)O)C[C@H](O)[C@@H](NC(C)=O)[C@H]([C@H](O)[C@H](O)CO)O1 [Methyl α-glycoside of sialic acid]										binding to hemagglutinin (in words) (hemagglutinin): bind weakly
NC(=O)c1ncn([C@@H]2O[C@H](CO)[C@@H](O)[C@H]2O)n1 [Ribavirin, reference compound]	25 ± 2	24 ± 6	24 ± 4	30 ± 6	5.4	10 ± 4		> 250		
COC1(C(=O)O)CC(O)C(NC(C)=O)C(C(O)C(O)CO)O1 (stereo not drawn) [methyl β-glycoside]										binding to hemagglutinin (in words) (hemagglutinin): does not bind at all
